Reference: ChEMBL document CHEMBL3272248, “beta-Adrenergic blocking agents. 18. 1-(Aryloxy)-3-(arylthioalkylamino)propan-2-ols and 1-substituted alkylthioamino-3-(aryloxy)propan-2-ols” (1978)
Activity calls are given as the source filed them. The calls are words filed in the database; no cut-off is given here.

Assays:
Felis catus [1] = test: In vivo inhibition of beta-1 adrenergic receptor in cat assessed as inhibition of isoproterenol-induced trachycardia at 200 ug/kg/min, iv after 30 mins; format: functional, organism-based
Felis catus [2] = test: In vivo inhibition of beta-2 adrenergic receptor in iv dosed cat assessed as inhibition of isoproterenol-induced vasodepressor response after 30 mins; format: functional
Felis catus [3] = test: In vivo inhibition of beta-1 adrenergic receptor in iv dosed cat assessed as inhibition of isoproterenol-induced trachycardia after 30 mins; format: functional; settings: 0.5 h

Compound: CCSCCCNCC(O)COc1ccc([N+](=O)[O-])cc1 (stereo unspecified)
- inhibition (Felis catus [1]): inactive

Compound: O=C(O)C(=O)O.OC(CNCCCSC1CCCCC1)COc1ccccc1 (stereo unspecified)
- inhibition (INH) (Felis catus [2]): 37%
- ED50 (Felis catus [3]): 0.781 mg/kg

Compound: CCSCCCNCC(O)COc1ccc(CC(N)=O)cc1 (stereo unspecified)
- inhibition (Felis catus [1]): inactive

Compound: N#Cc1ccccc1OCC(O)CNCCSc1ccccc1 (stereo unspecified)
- inhibition (Felis catus [1]): inactive

Compound: CC(C)(CSc1ccccc1)NCC(O)COc1ccccc1.O=C(O)C(=O)O (stereo unspecified)
- inhibition (INH) (Felis catus [2]): 40%
- ED50 (Felis catus [3]): 0.065 mg/kg

Compound: Cc1cccc(OCC(O)CNCCSc2ccccc2)c1 (stereo unspecified)
- inhibition (Felis catus [1]): inactive

Compound: [O-][S+](CCNCC(O)COc1ccccc1)c1ccccc1 (stereo unspecified)
- inhibition (INH) (Felis catus [2]): 0%
- ED50 (Felis catus [3]): 0.044 mg/kg

Compound: CCSCCCNCC(O)COc1ccccc1[N+](=O)[O-].O=C(O)C(=O)O (stereo unspecified)
- inhibition (INH) (Felis catus [2]): 12%
- ED50 (Felis catus [3]): 0.13 mg/kg

Compound: Cc1ccccc1OCC(O)CNCCSCc1ccccc1 (stereo unspecified)
- inhibition (Felis catus [1]): inactive

Compound: CC(C)(C[S+]([O-])c1ccccc1)NCC(O)COc1ccccc1.O=C(O)C(=O)O (stereo unspecified)
- inhibition (INH) (Felis catus [2]): 84%
- ED50 (Felis catus [3]): 0.185 mg/kg

Compound: Cc1ccccc1OCC(O)CNCCCSc1ccccc1 (stereo unspecified)
- inhibition (Felis catus [1]): inactive

Compound: Cc1ccc(SCCCNCC(O)COc2ccccc2)cc1.Cl (stereo unspecified)
- inhibition (INH) (Felis catus [2]): 11%
- ED50 (Felis catus [3]): 1.26 mg/kg

Compound: COc1ccccc1OCC(O)CNCCSc1ccccc1 (stereo unspecified)
- inhibition (Felis catus [1]): inactive

Compound: CCSCCCNCC(O)COc1ccccc1Cl (stereo unspecified)
- inhibition (INH) (Felis catus [2]): 52%
- ED50 (Felis catus [3]): 0.269 mg/kg

Compound: CCSCCCNCC(O)COc1ccccc1.O=C(O)C(=O)O (stereo unspecified)
- inhibition (INH) (Felis catus [2]): 14%
- ED50 (Felis catus [3]): 0.838 mg/kg

Compound: O=[N+]([O-])c1ccccc1OCC(O)CNCCSCc1ccccc1 (stereo unspecified)
- inhibition (INH) (Felis catus [2]): 0%
- ED50 (Felis catus [3]): 0.946 mg/kg

Compound: CCCc1ccccc1OCC(O)CNCCCSCC (stereo unspecified)
- inhibition (Felis catus [1]): inactive

Compound: Cc1ccccc1OCC(O)CNCCSc1ccccc1 (stereo unspecified)
- inhibition (INH) (Felis catus [2]): 53%
- ED50 (Felis catus [3]): 1.55 mg/kg

Compound: CCC(C)(C)CSCCCNCC(O)COc1ccccc1.O=C(O)C(=O)O (stereo unspecified)
- inhibition (INH) (Felis catus [2]): 0%
- ED50 (Felis catus [3]): 0.083 mg/kg

Compound: OC(CNCCSc1ccc(Cl)cc1)COc1ccccc1 (stereo unspecified)
- inhibition (Felis catus [1]): inactive

Compound: O=[N+]([O-])c1ccccc1OCC(O)CNCCC[S+]([O-])C1CCCCC1 (stereo unspecified)
- inhibition (Felis catus [1]): inactive

Compound: CC(NCC(O)COc1ccccc1)C(C)Sc1ccccc1.O=C(O)C(=O)O (stereo unspecified)
- inhibition (INH) (Felis catus [2]): 32%
- ED50 (Felis catus [3]): 0.195 mg/kg

Compound: OC(CNCCSc1ccccc1)COc1ccccc1 (stereo unspecified)
- inhibition (INH) (Felis catus [2]): 13%
- ED50 (Felis catus [3]): 0.138 mg/kg

Compound: CC(C)SCCCNCC(O)COc1ccccc1.O=C(O)C(=O)O (stereo unspecified)
- inhibition (INH) (Felis catus [2]): 0%
- ED50 (Felis catus [3]): 0.333 mg/kg

Compound: CCSCCCNCC(O)COc1ccc(NC(C)=O)cc1 (stereo unspecified)
- inhibition (Felis catus [1]): inactive

Compound: CC[S+]([O-])CCNCC(O)COc1ccccc1.O=C(O)C(=O)O (stereo unspecified)
- inhibition (INH) (Felis catus [2]): 10%
- ED50 (Felis catus [3]): 0.195 mg/kg

Compound: O=S(=O)(CCNCC(O)COc1ccccc1)c1ccccc1 (stereo unspecified)
- inhibition (INH) (Felis catus [2]): 53%
- ED50 (Felis catus [3]): 1.33 mg/kg

Compound: Cc1ccccc1OCC(O)CNCC[S+]([O-])c1ccccc1.O=C(O)C(=O)O (stereo unspecified)
- inhibition (INH) (Felis catus [2]): 54%
- ED50 (Felis catus [3]): 0.799 mg/kg

Compound: O=C(O)C(=O)O.OC(CNCCSCc1ccccc1)COc1ccccc1 (stereo unspecified)
- ED50 (Felis catus [3]): 0.207 mg/kg

Compound: CCSCCNCC(O)COc1ccccc1C#N.O=C(O)C(=O)O (stereo unspecified)
- ED50 (Felis catus [3]): 0.2 mg/kg

Compound: Cc1ccc(SCCCNCC(O)COc2ccccc2[N+](=O)[O-])cc1 (stereo unspecified)
- inhibition (Felis catus [1]): inactive

Compound: C=CCc1ccccc1OCC(O)CNCCCSCC.O=C(O)C(=O)O (stereo unspecified)
- inhibition (INH) (Felis catus [2]): 65%
- ED50 (Felis catus [3]): 0.72 mg/kg

Compound: OC(CNCCSCc1ccccc1)COc1ccccc1Cl (stereo unspecified)
- inhibition (Felis catus [1]): inactive

Compound: Cc1ccccc1OCC(O)CNCCOc1ccc(C(N)=O)cc1 (stereo unspecified) [TOLAMOLOL]
- inhibition (INH) (Felis catus [2]): 81%

Compound: CCSCCCNCC(O)COc1ccccc1C#N.O=C(O)C(=O)O (stereo unspecified)
- inhibition (INH) (Felis catus [2]): 0%
- ED50 (Felis catus [3]): 0.135 mg/kg

Compound: COc1ccccc1SCCNCC(O)COc1ccccc1.O=C(O)C(=O)O (stereo unspecified)
- inhibition (INH) (Felis catus [2]): 24%
- ED50 (Felis catus [3]): 0.482 mg/kg

Compound: CCSCCNCC(O)COc1ccccc1.Cl (stereo unspecified)
- inhibition (INH) (Felis catus [2]): 0%
- ED50 (Felis catus [3]): 0.332 mg/kg

Compound: CC(CNCC(O)COc1ccccc1)Sc1ccccc1.O=C(O)C(=O)O (stereo unspecified)
- inhibition (INH) (Felis catus [2]): 18%
- ED50 (Felis catus [3]): 0.559 mg/kg

Compound: CCSCCNCC(O)COc1ccccc1[N+](=O)[O-] (stereo unspecified)
- inhibition (Felis catus [1]): inactive

Compound: CC(CSc1ccccc1)NCC(O)COc1ccccc1.O=C(O)C(=O)O (stereo unspecified)
- inhibition (INH) (Felis catus [2]): 0%
- ED50 (Felis catus [3]): 0.016 mg/kg

Compound: Cl.OC(CNCCCSc1ccccc1)COc1ccccc1 (stereo unspecified)
- ED50 (Felis catus [3]): 0.415 mg/kg

Compound: O=C(O)C(=O)O.OC(CNCCSc1ccccc1)COc1ccccc1Cl (stereo unspecified)
- inhibition (INH) (Felis catus [2]): 0%
- ED50 (Felis catus [3]): 1.46 mg/kg

Compound: Cl.OC(CNCCSC1CCCCC1)COc1ccccc1 (stereo unspecified)
- inhibition (INH) (Felis catus [2]): 0%
- ED50 (Felis catus [3]): 0.162 mg/kg

Compound: Cc1ccc([S+]([O-])CCNCC(O)COc2ccccc2)cc1 (stereo unspecified)
- inhibition (INH) (Felis catus [2]): 13%
- ED50 (Felis catus [3]): 0.121 mg/kg

Compound: COc1ccc(OCC(O)CNCCSc2ccccc2)cc1 (stereo unspecified)
- inhibition (Felis catus [1]): inactive

Compound: [O-][S+](CCNCC(O)COc1ccccc1)c1ccc(Cl)cc1 (stereo unspecified)
- inhibition (INH) (Felis catus [2]): 0%
- ED50 (Felis catus [3]): 0.08 mg/kg

Compound: O=C(O)C(=O)O.O=[N+]([O-])c1ccccc1OCC(O)CNCCCS(=O)(=O)C1CCCCC1 (stereo unspecified)
- inhibition (INH) (Felis catus [2]): 75%
- ED50 (Felis catus [3]): 1.46 mg/kg

Compound: O=C(O)C(=O)O.[O-][S+](CCCNCC(O)COc1ccccc1)C1CCCCC1 (stereo unspecified)
- inhibition (INH) (Felis catus [2]): 68%
- ED50 (Felis catus [3]): 0.162 mg/kg

Compound: CC(CSc1ccccc1)NCC(O)COc1ccccc1Cl.O=C(O)C(=O)O (stereo unspecified)
- inhibition (INH) (Felis catus [2]): 60%
- ED50 (Felis catus [3]): 0.058 mg/kg

Compound: O=C(O)C(=O)O.O=[N+]([O-])c1ccccc1OCC(O)CNCCSC1CCCCC1 (stereo unspecified)
- inhibition (INH) (Felis catus [2]): 37%
- ED50 (Felis catus [3]): 0.427 mg/kg

Compound: CCSCCCNCC(O)COc1ccccc1Br.O=C(O)C(=O)O (stereo unspecified)
- inhibition (INH) (Felis catus [2]): 0%
- ED50 (Felis catus [3]): 0.212 mg/kg

Compound: CCSCCCNCC(O)COc1ccccc1OC.O=C(O)C(=O)O (stereo unspecified)
- inhibition (INH) (Felis catus [2]): 70%
- ED50 (Felis catus [3]): 0.285 mg/kg

Compound: O=[N+]([O-])c1ccccc1OCC(O)CNCCCSC1CCCCC1 (stereo unspecified)
- inhibition (Felis catus [1]): inactive

Compound: O=C(O)C(=O)O.[O-][S+](CCNCC(O)COc1ccccc1)Cc1ccccc1 (stereo unspecified)
- inhibition (INH) (Felis catus [2]): 20%
- ED50 (Felis catus [3]): 0.156 mg/kg

Compound: Cc1ccc(SCCNCC(O)COc2ccccc2)cc1 (stereo unspecified)
- inhibition (INH) (Felis catus [2]): 43%
- ED50 (Felis catus [3]): 0.289 mg/kg

Compound: CCSCCCNCC(O)COc1ccc(OC)cc1 (stereo unspecified)
- inhibition (Felis catus [1]): inactive
